In PMC3701944 (Journal of medicinal chemistry, 2013) one finds Kb, δ/κ and μ/κ data, which are given here for eleven molecules.

What all share (format): biochemical
In test [1] the target is cloned human μ opioid receptor (MOP) (Homo sapiens, UniProt P35372). Put plainly: [35S]GTPγS binding assay, inhibition of DAMGO-stimulated binding. Background: GTPγS is a poorly hydrolysed GTP analogue; its binding reports G protein activation.
Test [2] deals with cloned human δ opioid receptor (DOP) (Homo sapiens, UniProt P41143). Put plainly: [35S]GTPγS binding assay, inhibition of DPDPE-stimulated binding.
Chain of cloned human δ opioid receptor (DOP) (P41143 whole entry): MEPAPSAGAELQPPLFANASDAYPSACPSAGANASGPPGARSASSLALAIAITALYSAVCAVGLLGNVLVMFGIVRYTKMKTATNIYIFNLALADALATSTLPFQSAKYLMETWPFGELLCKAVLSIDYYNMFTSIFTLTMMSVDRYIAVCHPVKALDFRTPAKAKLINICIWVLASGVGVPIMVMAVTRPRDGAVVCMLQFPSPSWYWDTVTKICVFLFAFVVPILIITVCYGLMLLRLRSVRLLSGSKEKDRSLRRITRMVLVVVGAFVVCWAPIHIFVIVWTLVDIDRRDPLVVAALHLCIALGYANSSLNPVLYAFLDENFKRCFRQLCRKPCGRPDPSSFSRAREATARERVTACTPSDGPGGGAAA
The target of test [3] is cloned human κ opioid receptor (KOP) (Homo sapiens, UniProt P41145). Put plainly: [35S]GTPγS binding assay, inhibition of U69,593-stimulated binding. The note with it: for δ/κ: selectivity for κ relative to δ (fold).
Chain of cloned human κ opioid receptor (KOP) (P41145 whole entry): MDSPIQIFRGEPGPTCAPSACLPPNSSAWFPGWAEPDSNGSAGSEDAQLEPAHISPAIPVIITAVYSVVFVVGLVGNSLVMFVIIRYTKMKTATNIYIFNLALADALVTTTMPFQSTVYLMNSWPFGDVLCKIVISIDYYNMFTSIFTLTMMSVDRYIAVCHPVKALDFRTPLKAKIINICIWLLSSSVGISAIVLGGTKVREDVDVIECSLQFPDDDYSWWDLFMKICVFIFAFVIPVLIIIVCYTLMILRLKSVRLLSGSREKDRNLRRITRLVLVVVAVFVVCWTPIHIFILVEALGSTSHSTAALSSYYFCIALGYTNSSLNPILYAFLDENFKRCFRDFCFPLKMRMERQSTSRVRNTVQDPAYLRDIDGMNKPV

A value given as a limit tells only on which side of the number the result lay.

Chain of cloned human μ opioid receptor (MOP) (P35372 whole entry): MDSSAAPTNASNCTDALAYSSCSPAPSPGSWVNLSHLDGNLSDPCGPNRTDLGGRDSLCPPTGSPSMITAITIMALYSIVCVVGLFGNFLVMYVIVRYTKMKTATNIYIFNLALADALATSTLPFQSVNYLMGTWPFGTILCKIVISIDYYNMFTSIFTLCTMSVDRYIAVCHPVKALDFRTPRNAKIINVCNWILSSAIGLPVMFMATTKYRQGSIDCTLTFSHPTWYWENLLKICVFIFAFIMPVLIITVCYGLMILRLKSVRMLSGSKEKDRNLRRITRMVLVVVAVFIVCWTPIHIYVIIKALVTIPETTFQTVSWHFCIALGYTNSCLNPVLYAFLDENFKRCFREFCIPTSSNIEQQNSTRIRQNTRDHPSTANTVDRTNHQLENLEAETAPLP

For the molecule `CC(C)[C@@H](CN1CCN(c2cccc(O)c2)[C@@H](C)C1)NC(=O)[C@H]1Cc2ccc(O)cc2CN1` [10a, (3R)-7-Hydroxy-N-[(1S)-1-{[(3S)-4-(3-hydroxyphenyl)-3-methylpiperazin-1-yl]methyl}-2-methylpropyl]-1,2,3,4-tetrahydroisoquinoline-3-carboxamide], the Kb is 74.2 ± 7.6 nM in test [1] and 1310 ± 317 nM in test [2].
The like results for `CC(C)[C@@H](CN1CCN(c2cccc(O)c2)[C@H](C)C1)NC(=O)[C@H]1Cc2ccc(O)cc2CN1` [10b, (3R)-7-Hydroxy-N-[(1S)-1-[[(3R)-4-(3-hydroxyphenyl)-3-methylpiperazin-1-yl]methyl}-2-methylpropyl]-1,2,3,4-tetrahydroisoquinoline-3-carboxamide] were, in that order, 49.4 ± 2.7 nM and 1550 ± 251 nM.
The like results for `Cc1cccc(Oc2ccc(C(=O)N[C@H](CN3CCN(c4cccc(O)c4)[C@@H](C)C3)C(C)C)c(C)c2)c1` [12f, N-[(1S)-1-{[(3S)-4-(3-Hydroxyphenyl)-3-methylpiperazin-1-yl]methyl}-2-methylpropyl]-2-methyl-4-(3-methylphenoxy)benzamide] were, in that order, 18 ± 3 nM and 14 ± 3 nM.
Consider `Cc1cccc(Oc2ccc(C(=O)N[C@H](CN3CCN(c4cccc(O)c4)[C@@H](C)C3)C(C)C)c(O)c2)c1` [12h, 2-Hydroxy-N-[(1S)-1-{[(3S)-4-(3-hydroxyphenyl)-3-methylpiperazin-1-yl]methyl}-2-methylpropyl]-4-(3-methylphenoxy)benzamide], for which the Kb in test [1] turned out to be 119 ± 28 nM; in test [3], 1.9 ± 0.4 nM; in test [2], 880 ± 320 nM.
For the molecule `COc1cc(C(=O)N[C@H](CN2CCN(c3cccc(O)c3)[C@@H](C)C2)C(C)C)ccc1Oc1ccccc1O` [12i, 4-(2-Hydroxyphenoxy)-N-[(1S)-1-{[(3S)-4-(3-hydroxyphenyl)-3-methylpiperazin-1-yl]methyl}-2-methylpropyl]-3-methoxybenzamide], the Kb in test [2] was determined as 117 ± 60 nM.
With `CC(C)[C@@H](CN1CCN(c2cccc(O)c2)[C@@H](C)C1)NC(=O)c1ccc(Oc2ccccc2O)c(Cl)c1` [12j, 3-Chloro-4-(2-hydroxyphenoxy)-N-[(1S)-1-{[(3S)-4-(3-hydroxyphenyl)-3-methylpiperazin-1-yl]methyl}-2-methylpropyl]benzamide], the Kb in test [1] turned out to be 36 ± 9 nM; in test [3] it was 5 ± 0.82 nM; in test [2] it was 210 ± 82 nM.
For `COc1cc(C(=O)N[C@H](CN2CCN(c3cccc(O)c3)[C@@H](C)C2)C(C)C)ccc1Oc1cc(C)ccc1O` [12k, 4-(2-Hydroxy-5-methylphenoxy)-N-[(1S)-1-{[(3S)-4-(3-hydroxyphenyl)-3-methylpiperazin-1-yl]methyl}-2-methylpropyl]-3-methoxybenzamide], the results for the Kb in test [1] and in test [2] were 10.2 ± 3 nM and 117 ± 80 nM, respectively.
As for `CC(C)[C@@H](CN1CCN(c2cccc(O)c2)[C@@H](C)C1)NC(=O)c1ccc(-c2ccccc2)cc1` [compound 22, N-[(1S)-1-{[(3S)-4-(3-Hydroxyphenyl)-3-methylpiperazin-1-yl]methyl}-2-methylpropyl]biphenyl-4-carboxamide], the Kb in test [1] was 8.69 ± 3 nM; in test [3], 1.87 ± 0.47 nM; in test [2] it was 258 ± 88 nM.
With `CCCCc1ccc(C(=O)N[C@H](CN2CCN(c3cccc(O)c3)[C@@H](C)C2)C(C)C)cc1` [compound 23, 4-Butyl-N-[(1S)-1-{[(3S)-4-(3-hydroxyphenyl)-3-methylpiperazin-1-yl]methyl}-2-methylpropyl]benzamide], the Kb in test [1] is 21.1 ± 2 nM; in test [3] it was 2.8 ± 1 nM; in test [2], 230 ± 3 nM.
In the case of `COc1ccc(C(=O)N[C@H](CN2CCN(c3cccc(O)c3)[C@@H](C)C2)C(C)C)cc1OC` [compound 24, N-[(1S)-1-{[(3S)-4-(3-Hydroxyphenyl)-3-methylpiperazin-1-yl]methyl}-2-methylpropyl]-3,4-dimethoxybenzamide], the Kb in test [1] was 334 ± 110 nM; in test [3], 81.7 ± 30 nM; in test [2], greater than 10000 nM. For the same molecule, the δ/κ in test [3] (ratio of Ke values) is given as greater than 122.
Consider “N-(1S)-1-{[(3S)-4-(3-Hydroxyphenyl)-3-methylpiperazin-1-yl]methyl}-2-methylpropyl]-5-phenoxypyridine-2-carboxamide [compound 14]”, for which the δ/κ in test [3] (ratio of Ke values) is 1119. In addition, the μ/κ in test [3] (ratio of Ke values, selectivity for κ relative to μ (fold)) is given as 38.
